Experimental data as given in article PMC10880924, “Small molecule WDR5 inhibitors down-regulate lncRNA expression” (RSC Medicinal Chemistry, 2024).
Read-outs that look alike come from different tables or passages of the source. Values belong to the compound of their own block, whether it stands above or below them. Bridge positions count the residues as written; N and C are the ends. Square brackets hold non-standard residues; d marks the D form. Peptide text beside a SMILES is read from it. Dab = NCC[C@H](N)C(=O)O

Legend:
WDR5^WT (WBM site) = WDR5^WT (WBM site) (Homo sapiens, UniProt P61964)
WDR5^WT (WIN site) = WDR5^WT (WIN site) (Homo sapiens, UniProt P61964); conditions: for inhibition at the WIN site: competitive FP, tracer 1F
[1] = tested on: HOTTIP expression in MDA-MB-231 cells; conditions: for HOTTIP fold change: mean ± SD
[2] = tested on: FOXD3-AS1 expression in MDA-MB-231 cells; conditions: for FOXD3-AS1 fold change: mean ± SD
[3] = tested on: TGF-β1 expression in MDA-MB-231 cells; conditions: 3 d, vs blank = 1.000, mean ± SD
[4] = 1 µM, 3 d, exp 8 (individual bioreplicate), vs blank = 1.000
[5] = 1 µM, 3 d, exp 9 (individual bioreplicate), vs blank = 1.000
[6] = 5 µM, 3 d, exp 7 (individual bioreplicate), vs blank = 1.000
[7] = 5 µM, 3 d, exp 8 (individual bioreplicate), vs blank = 1.000
[8] = 5 µM, 3 d, exp 9 (individual bioreplicate), vs blank = 1.000
[9] = 10 µM, 1 d, Exp. 1 (individual bioreplicate), vs blank 0.1% DMSO = 1.000
[10] = 10 µM, 1 d, Exp. 2 (individual bioreplicate), vs blank 0.1% DMSO = 1.000
[11] = 10 µM, 1 d, Exp. 3 (individual bioreplicate), vs blank 0.1% DMSO = 1.000
[12] = 10 µM, 1 d, Exp. 4 (individual bioreplicate), vs blank 0.1% DMSO = 1.000
[13] = 10 µM, 1 d, Exp. 5 (individual bioreplicate), vs blank 0.1% DMSO = 1.000
[14] = 10 µM, 1 d, Exp. 6 (individual bioreplicate), vs blank 0.1% DMSO = 1.000
[15] = 10 µM, 3 d, Exp. 7 (individual bioreplicate), vs blank 0.1% DMSO = 1.000
[16] = 10 µM, 3 d, Exp. 8 (individual bioreplicate), vs blank 0.1% DMSO = 1.000
[17] = 10 µM, 3 d, Exp. 9 (individual bioreplicate), vs blank 0.1% DMSO = 1.000
[18] = 10 µM, 3 d, Exp. 10 (individual bioreplicate), vs blank 0.1% DMSO = 1.000
[19] = 10 µM, 3 d, Exp. 11 (individual bioreplicate), vs blank 0.1% DMSO = 1.000
[20] = 10 µM, 3 d, Exp. 12 (individual bioreplicate), vs blank 0.1% DMSO = 1.000
[21] = MDA-MB-231, three days, 1/5/10 μM tested

Structure (SMILES): CC(=O)N[C@@H](C)C(=O)N[C@@H](CCCNC(=N)N)C(=O)N[C@H](C(=O)N[C@@H](CCC(=O)O)C(=O)N[C@H](C(=O)N[C@@H](Cc1c[nH]cn1)C(=O)N[C@@H](CC(C)C)C(=O)N[C@@H](CCCNC(=N)N)C(=O)N[C@@H](CCCCN)C(=O)N[C@@H](CO)C(N)=O)C(C)C)[C@@H](C)O [1NH2]
inhibition at the WBM site (WDR5^WT (WBM site); competitive FP, tracer 2F): does not inhibit the WBM-site

Structure (SMILES): CC[C@H](C)[C@H](NC(=O)[C@H](CCC(=O)O)NC(=O)[C@H](CCC(=O)O)NC(=O)[C@H](CCC(=O)O)NC(=O)[C@H](CC(=O)O)NC(C)=O)C(=O)N[C@H]1CC(=O)NCC[C@@H](C(=O)N[C@H](C(=O)N[C@@H](CCC(=O)O)C(N)=O)C(C)C)NC(=O)[C@H](C(C)C)NC(=O)[C@H](C(C)C)NC1=O [2Ac] (Ac-DEEEIDVV[Dab]VE-NH2; lactam 6-9)
inhibition at the WIN site (WDR5^WT (WIN site)): vice versa

inhibition at the WIN site (WDR5^WT (WIN site)): did not observe any crossover inhibition
Ki (WDR5^WT (WIN site); read-out: Ki (tracer 1F), WIN site, WDR5^WT 2 nM, 1F 0.6 nM, HEPES pH 7.0, 0.01% Triton-X, 1% DMSO, mean ± SD of four replicates (two biological x two technical), converted from IC50): > 40000 nM
Ki (WDR5^WT (WBM site); read-out: Ki (tracer 2F), WBM site, WDR5^WT 500 nM, 2F 5.0 nM, HEPES pH 7.0, 0.01% Triton-X, 1% DMSO, mean ± SD of four replicates (two biological x two technical), converted from IC50): 107 ± 20 nM
Structure (SMILES): CNC(=O)c1cc(C2(C#N)CCC2)cc(NS(=O)(=O)c2cc(Br)cc(Cl)c2O)c1O [7k, 3-((5-Bromo-3-chloro-2-hydroxyphenyl)sulfonamido)-5-(1cyanocyclobutyl)-2-hydroxy-N-methylbenzamide]
HOTTIP fold change ([1]; 1 µM, 3 d, exp 7 (individual bioreplicate), vs blank = 1.000): 0.923 ± 0.164
HOTTIP fold change [1, 4]: 0.821 ± 0.069
HOTTIP fold change [1, 5]: 1.189 ± 0.152
HOTTIP fold change [1, 6]: 0.643 ± 0.184
HOTTIP fold change [1, 7]: 0.877 ± 0.062
HOTTIP fold change [1, 8]: 0.915 ± 0.153
HOTTIP fold change [1, 9]: 0.963 ± 0.284
HOTTIP fold change [1, 10]: 1.521 ± 0.182
HOTTIP fold change [1, 11]: 1.129 ± 0.176
HOTTIP fold change [1, 12]: 0.970 ± 0.197
HOTTIP fold change [1, 13]: 0.988 ± 0.141
HOTTIP fold change [1, 14]: 0.618 ± 0.071
HOTTIP fold change [1, 15]: 0.464 ± 0.082
HOTTIP fold change [1, 16]: 0.570 ± 0.035
HOTTIP fold change [1, 17]: 0.733 ± 0.095
HOTTIP fold change [1, 18]: 0.646 ± 0.116
HOTTIP fold change [1, 19]: 1.031 ± 0.214
HOTTIP fold change [1, 20]: 0.548 ± 0.132
concentration required for significant changes of HOTTIP expression [1, 21]: 10 µM
FOXD3-AS1 fold change [2, 4]: 0.984 ± 0.128
FOXD3-AS1 fold change [2, 5]: 0.971 ± 0.104
FOXD3-AS1 fold change [2, 6]: 0.753 ± 0.078
FOXD3-AS1 fold change [2, 7]: 1.178 ± 0.131
FOXD3-AS1 fold change [2, 8]: 1.020 ± 0.085
FOXD3-AS1 fold change [2, 9]: 0.913 ± 0.098
FOXD3-AS1 fold change [2, 10]: 1.000 ± 0.050
FOXD3-AS1 fold change [2, 11]: 0.842 ± 0.122
FOXD3-AS1 fold change [2, 12]: 0.826 ± 0.055
FOXD3-AS1 fold change [2, 13]: 1.053 ± 0.047
FOXD3-AS1 fold change [2, 14]: 0.901 ± 0.056
FOXD3-AS1 fold change [2, 15]: 0.756 ± 0.076
FOXD3-AS1 fold change [2, 16]: 1.075 ± 0.124
FOXD3-AS1 fold change [2, 17]: 0.847 ± 0.077
FOXD3-AS1 fold change [2, 18]: 0.798 ± 0.040
FOXD3-AS1 fold change [2, 19]: 0.944 ± 0.033
FOXD3-AS1 fold change [2, 20]: 0.650 ± 0.065
TGF-β1 fold change ([3]; 1 µM, exp 7 (individual bioreplicate)): 0.972 ± 0.048
TGF-β1 fold change ([3]; 1 µM, exp 8 (individual bioreplicate)): 1.020 ± 0.062
TGF-β1 fold change ([3]; 1 µM, exp 9 (individual bioreplicate)): 1.060 ± 0.127
TGF-β1 fold change ([3]; 5 µM, exp 7 (individual bioreplicate)): 0.916 ± 0.056
TGF-β1 fold change ([3]; 5 µM, exp 8 (individual bioreplicate)): 1.009 ± 0.079
TGF-β1 fold change ([3]; 5 µM, exp 9 (individual bioreplicate)): 1.003 ± 0.120
TGF-β1 fold change ([3]; 10 µM, exp 7 (individual bioreplicate)): 0.972 ± 0.055
TGF-β1 fold change ([3]; 10 µM, exp 8 (individual bioreplicate)): 0.987 ± 0.059
TGF-β1 fold change ([3]; 10 µM, exp 9 (individual bioreplicate)): 0.942 ± 0.101

Structure (SMILES): CN1CCN(c2ccc(-c3cccc(CN4CCOCC4)c3)cc2NC(=O)c2c[nH]c(=O)cc2C(F)(F)F)CC1 [OICR-9429]
concentration of maximum effect on HOTTIP expression [1, 21]: 5 µM
concentration of maximum effect on FOXD3-AS1 expression [2, 21]: 5 µM
